#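 Interpolation was linear, between the two tested concentrations surrounding the appropriate level; five concentrations were tested over 48 hours in 96-well plates. GI50 marks 50% less growth. TGI: concentration producing complete growth inhibition.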 Non-standard residues stand in square brackets, D forms with d. Residues, ends and D or L forms follow the SMILES beside them. *: point of attachment. hSer = N[CH](CCO)C(=O)O; Boc = CC(C)(C)OC(=O)*
# Legend:
# Assay in all cases: inhibition of tumour cell growth, NCI panel, 48 h
# HS 578T breast = test system: HS 578T breast
# MDA-MB-231 breast = test system: MDA-MB-231 breast
# COLO 205 colon = test system: COLO 205 colon
# OVCAR-4 ovarian = test system: OVCAR-4 ovarian
# UACC-62 melanoma = test system: UACC-62 melanoma
# SK-OV-3 ovarian = test system: SK-OV-3 ovarian
# SW-620 colon = test system: SW-620 colon
# SF-539 CNS = test system: SF-539 CNS
# ACHN renal = test system: ACHN renal
# NCI/ADR-RES ovarian = test system: NCI/ADR-RES ovarian
# A498 renal = test system: A498 renal
# HL-60(TB) leukemia = test system: HL-60(TB) leukemia
# NCI-H226 lung = test system: NCI-H226 lung
# DU-145 prostate = test system: DU-145 prostate
# MALME-3M melanoma = test system: MALME-3M melanoma
# OVCAR-5 ovarian = test system: OVCAR-5 ovarian
# SK-MEL-28 melanoma = test system: SK-MEL-28 melanoma
# SF-268 CNS = test system: SF-268 CNS
# NCI-H522 lung = test system: NCI-H522 lung
# SNB-75 CNS = test system: SNB-75 CNS
# RXF 393 renal = test system: RXF 393 renal
# SNB-19 CNS = test system: SNB-19 CNS
# HOP-92 NSCLC = test system: HOP-92 NSCLC
# CAKI-1 renal = test system: CAKI-1 renal
# HOP-62 NSCLC = test system: HOP-62 NSCLC
# OVCAR-3 ovarian = test system: OVCAR-3 ovarian
# HCT-15 colon = test system: HCT-15 colon
# HCT-116 colon = test system: HCT-116 colon
# MCF7 breast = test system: MCF7 breast
# M14 melanoma = test system: M14 melanoma
# LOX IMVI melanoma = test system: LOX IMVI melanoma
# NCI-H460 lung = test system: NCI-H460 lung
# MOLT-4 leukemia = test system: MOLT-4 leukemia
# SR leukemia = test system: SR leukemia
# KM12 colon = test system: KM12 colon
# OVCAR-8 ovarian = test system: OVCAR-8 ovarian
# K-562 leukemia = test system: K-562 leukemia
# HCC-2998 colon = test system: HCC-2998 colon
# CCRF-CEM leukemia = test system: CCRF-CEM leukemia
# NCI-H23 lung = test system: NCI-H23 lung
# T-47D breast = test system: T-47D breast
# SK-MEL-5 melanoma = test system: SK-MEL-5 melanoma
# MDA-MB-435 = test system: MDA-MB-435
# A549 NSCLC = test system: A549 NSCLC
# RPMI-8226 leukemia = test system: RPMI-8226 leukemia
# IGROV1 ovarian = test system: IGROV1 ovarian
# 786-0 renal = test system: 786-0 renal
# SK-MEL-2 melanoma = test system: SK-MEL-2 melanoma
# U251 CNS = test system: U251 CNS
# SN12C renal = test system: SN12C renal
# BT-549 breast = test system: BT-549 breast
# SF-295 CNS = test system: SF-295 CNS
# PC-3 prostate = test system: PC-3 prostate
# UO-31 renal = test system: UO-31 renal
# EKVX NSCLC = test system: EKVX NSCLC
# TK-10 renal = test system: TK-10 renal
compound,measurement,setting,value
O=C(Nc1ccc2ncnc(Nc3ccc(Oc4cccc(F)c4)c(Cl)c3)c2c1)c1ccc(CNCCO)cc1,GI50,HS 578T breast,1640 nM
same,TGI,HS 578T breast,4420 nM
same,GI50,MDA-MB-231 breast,1730 nM
same,TGI,MDA-MB-231 breast,3270 nM
same,GI50,COLO 205 colon,1800 nM
same,TGI,COLO 205 colon,3560 nM
same,GI50,OVCAR-4 ovarian,1880 nM
same,TGI,OVCAR-4 ovarian,4810 nM
same,GI50,UACC-62 melanoma,1700 nM
same,TGI,UACC-62 melanoma,3070 nM
same,GI50,SK-OV-3 ovarian,1140 nM
same,TGI,SK-OV-3 ovarian,2530 nM
same,GI50,SW-620 colon,1830 nM
same,TGI,SW-620 colon,3520 nM
same,GI50,SF-539 CNS,1620 nM
same,TGI,SF-539 CNS,3010 nM
same,GI50,ACHN renal,1590 nM
same,TGI,ACHN renal,3050 nM
same,GI50,NCI/ADR-RES ovarian,7200 nM
same,TGI,NCI/ADR-RES ovarian,36900 nM
same,GI50,A498 renal,2580 nM
same,TGI,A498 renal,23400 nM
same,GI50,HL-60(TB) leukemia,2060 nM
same,TGI,HL-60(TB) leukemia,4740 nM
same,GI50,NCI-H226 lung,19700 nM
same,TGI,NCI-H226 lung,56100 nM
same,GI50,DU-145 prostate,1800 nM
same,TGI,DU-145 prostate,3440 nM
same,GI50,MALME-3M melanoma,1520 nM
same,TGI,MALME-3M melanoma,2930 nM
same,GI50,OVCAR-5 ovarian,1630 nM
same,TGI,OVCAR-5 ovarian,3170 nM
same,GI50,SK-MEL-28 melanoma,1690 nM
same,TGI,SK-MEL-28 melanoma,3080 nM
Nc1nc(Cl)c(N=Nc2ccc(Cl)cc2)c(NCC2(CO)CC2)n1,GI50,HS 578T breast,12600 nM
same,GI50,MDA-MB-231 breast,11100 nM
same,GI50,SK-OV-3 ovarian,14200 nM
same,GI50,SF-268 CNS,40900 nM
same,GI50,NCI-H522 lung,47500 nM
same,GI50,ACHN renal,411 nM
same,GI50,SNB-75 CNS,10300 nM
same,GI50,RXF 393 renal,33500 nM
same,GI50,A498 renal,90900 nM
same,GI50,SNB-19 CNS,50000 nM
same,GI50,HOP-92 NSCLC,1080 nM
same,TGI,HOP-92 NSCLC,38100 nM
same,GI50,CAKI-1 renal,5060 nM
same,GI50,HOP-62 NSCLC,28700 nM
COCCC(NC(=O)C(CC(C)C)NC(=O)OC(C)(C)C)C(=O)OC (stereo not drawn) (Boc-Leu-[hSer](Me)-OMe; configuration not given here),GI50,OVCAR-3 ovarian,78.4 µg/mL
same,GI50,OVCAR-4 ovarian,70.2 µg/mL
same,GI50,HCT-15 colon,64.9 µg/mL
same,GI50,HCT-116 colon,91.6 µg/mL
same,GI50,MCF7 breast,59.7 µg/mL
same,GI50,M14 melanoma,48.6 µg/mL
same,GI50,NCI-H522 lung,31.3 µg/mL
same,TGI,NCI-H522 lung,80.1 µg/mL
same,GI50,LOX IMVI melanoma,65.1 µg/mL
same,GI50,NCI-H460 lung,70.1 µg/mL
same,GI50,MOLT-4 leukemia,26 µg/mL
same,TGI,MOLT-4 leukemia,70.2 µg/mL
same,GI50,SR leukemia,31.2 µg/mL
same,GI50,HL-60(TB) leukemia,37 µg/mL
same,GI50,KM12 colon,89.9 µg/mL
same,GI50,OVCAR-8 ovarian,88.3 µg/mL
same,GI50,K-562 leukemia,63.1 µg/mL
same,GI50,HCC-2998 colon,50.1 µg/mL
same,GI50,CCRF-CEM leukemia,17.8 µg/mL
O=CC(O)C(O)C(O)C(O)COP(=O)(O)Cc1ccccc1 (stereo not given),TGI,COLO 205 colon,> 10000 nM
same,TGI,OVCAR-4 ovarian,> 10000 nM
same,TGI,UACC-62 melanoma,> 10000 nM
same,TGI,SK-OV-3 ovarian,> 10000 nM
same,TGI,SW-620 colon,> 10000 nM
same,TGI,NCI-H23 lung,> 10000 nM
same,TGI,T-47D breast,> 10000 nM
same,TGI,MCF7 breast,> 10000 nM
same,TGI,SK-MEL-5 melanoma,> 10000 nM
same,TGI,SF-268 CNS,> 10000 nM
same,TGI,M14 melanoma,> 10000 nM
same,TGI,MDA-MB-435,> 10000 nM
same,TGI,A549 NSCLC,> 10000 nM
same,TGI,ACHN renal,> 10000 nM
same,TGI,SNB-75 CNS,> 10000 nM
same,TGI,RPMI-8226 leukemia,> 10000 nM
same,TGI,NCI-H460 lung,> 10000 nM
same,TGI,MOLT-4 leukemia,> 10000 nM
same,TGI,SR leukemia,> 10000 nM
same,TGI,NCI/ADR-RES ovarian,> 10000 nM
same,TGI,RXF 393 renal,> 10000 nM
same,TGI,HL-60(TB) leukemia,> 10000 nM
same,TGI,IGROV1 ovarian,> 10000 nM
same,TGI,MALME-3M melanoma,> 10000 nM
same,TGI,786-0 renal,> 10000 nM
same,TGI,OVCAR-5 ovarian,> 10000 nM
same,TGI,SK-MEL-2 melanoma,> 10000 nM
same,TGI,CAKI-1 renal,> 10000 nM
same,TGI,U251 CNS,> 10000 nM
same,TGI,K-562 leukemia,> 10000 nM
same,TGI,HOP-62 NSCLC,> 10000 nM
same,TGI,SK-MEL-28 melanoma,> 10000 nM
same,TGI,CCRF-CEM leukemia,> 10000 nM
CCCCCCCCCCCCCC[n+]1ccc2c(C)c3c(c(C)c2c1)c1cc(O)ccc1n3CC,GI50,HS 578T breast,975 nM
same,TGI,HS 578T breast,3670 nM
same,GI50,MDA-MB-231 breast,602 nM
same,TGI,MDA-MB-231 breast,2100 nM
same,GI50,OVCAR-4 ovarian,272 nM
same,TGI,OVCAR-4 ovarian,1070 nM
same,GI50,UACC-62 melanoma,468 nM
same,TGI,UACC-62 melanoma,1870 nM
same,GI50,SK-OV-3 ovarian,280 nM
same,TGI,SK-OV-3 ovarian,849 nM
same,GI50,NCI-H23 lung,223 nM
same,TGI,NCI-H23 lung,1020 nM
same,GI50,HCT-15 colon,1210 nM
same,TGI,HCT-15 colon,3500 nM
same,GI50,SK-MEL-5 melanoma,258 nM
same,TGI,SK-MEL-5 melanoma,724 nM
same,GI50,SN12C renal,341 nM
same,TGI,SN12C renal,1310 nM
same,GI50,MDA-MB-435,314 nM
same,TGI,MDA-MB-435,1030 nM
same,GI50,BT-549 breast,339 nM
same,TGI,BT-549 breast,1460 nM
same,GI50,NCI-H522 lung,420 nM
same,TGI,NCI-H522 lung,2000 nM
same,GI50,SF-539 CNS,419 nM
same,TGI,SF-539 CNS,1520 nM
same,GI50,SF-295 CNS,289 nM
same,TGI,SF-295 CNS,1080 nM
same,GI50,ACHN renal,1220 nM
same,TGI,ACHN renal,3900 nM
same,GI50,SNB-75 CNS,213 nM
same,TGI,SNB-75 CNS,1050 nM
same,GI50,RPMI-8226 leukemia,310 nM
same,TGI,RPMI-8226 leukemia,1990 nM
same,GI50,NCI-H460 lung,347 nM
same,TGI,NCI-H460 lung,1590 nM
same,GI50,NCI/ADR-RES ovarian,5130 nM
same,TGI,NCI/ADR-RES ovarian,32300 nM
same,GI50,PC-3 prostate,356 nM
same,TGI,PC-3 prostate,1330 nM
same,GI50,A498 renal,327 nM
same,TGI,A498 renal,1270 nM
same,GI50,HL-60(TB) leukemia,378 nM
same,TGI,HL-60(TB) leukemia,1950 nM
same,GI50,NCI-H226 lung,418 nM
same,TGI,NCI-H226 lung,1960 nM
same,GI50,UO-31 renal,1390 nM
same,TGI,UO-31 renal,4570 nM
same,GI50,DU-145 prostate,381 nM
same,TGI,DU-145 prostate,1630 nM
same,GI50,IGROV1 ovarian,496 nM
same,TGI,IGROV1 ovarian,2060 nM
same,GI50,EKVX NSCLC,554 nM
same,TGI,EKVX NSCLC,2560 nM
same,GI50,MALME-3M melanoma,233 nM
same,TGI,MALME-3M melanoma,706 nM
same,GI50,TK-10 renal,337 nM
same,TGI,TK-10 renal,1540 nM
same,GI50,OVCAR-5 ovarian,497 nM
same,TGI,OVCAR-5 ovarian,1850 nM
same,GI50,HOP-92 NSCLC,301 nM
same,TGI,HOP-92 NSCLC,1320 nM
same,GI50,SK-MEL-2 melanoma,256 nM
same,TGI,SK-MEL-2 melanoma,774 nM
same,GI50,HOP-62 NSCLC,408 nM
same,TGI,HOP-62 NSCLC,1940 nM
same,GI50,HCC-2998 colon,435 nM
same,TGI,HCC-2998 colon,1810 nM
same,GI50,SK-MEL-28 melanoma,496 nM
same,TGI,SK-MEL-28 melanoma,1730 nM

# From PubChem BioAssay (NCI)
